The values below come from patent US20240252488A1 (KOREA RESEARCH INSTITUTE OF CHEMICAL TECHNOLOGY, priority 2020, published 2024).

Assay [1] deals with T1, MLKL (Homo sapiens, UniProt Q8NB16).
T1 sequence (Q8NB16 1-471): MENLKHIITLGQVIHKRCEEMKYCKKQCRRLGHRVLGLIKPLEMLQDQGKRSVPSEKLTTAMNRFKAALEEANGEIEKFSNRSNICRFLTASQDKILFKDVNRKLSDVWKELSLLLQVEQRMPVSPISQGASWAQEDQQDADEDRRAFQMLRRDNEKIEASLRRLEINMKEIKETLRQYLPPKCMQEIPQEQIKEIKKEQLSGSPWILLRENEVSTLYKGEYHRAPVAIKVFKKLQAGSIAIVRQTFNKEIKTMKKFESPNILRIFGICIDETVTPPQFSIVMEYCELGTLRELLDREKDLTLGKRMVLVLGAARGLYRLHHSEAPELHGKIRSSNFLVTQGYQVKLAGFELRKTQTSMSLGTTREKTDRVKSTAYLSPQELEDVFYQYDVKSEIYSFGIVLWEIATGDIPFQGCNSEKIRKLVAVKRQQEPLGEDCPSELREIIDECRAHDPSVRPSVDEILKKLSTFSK
The assay is described as follows: Measurement of binding affinity with MLKL receptor (competitive binding assay, Kd). Details: made in house; host or cells: HEK 293 cell line (T7 phage in E. coli BL21-derived host is also described). Summed up:
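Kd comes from a bead-based competition format: compound-dependent loss of DNA-tagged, HEK 293-expressed MLKL capture, measured as eluate kinase by qPCR. Final DMSO is 0.9%.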

In assay [2] the test system is FADD−/− Jurkat cells. The assay is described as follows: Necroptosis inhibition assay, TNF-α-induced necroptosis (CellTiter-Glo 2.0). It is filed as cell-based, human. The note with it: TNF-α 15 ng/mL; for Necroptosis inhibition assay (Rescue %) 1 μM: compound 1 μM; for Necroptosis inhibition assay (Rescue %) 10 μM: compound 10 μM. Summed up:
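Necroptosis induced by 15 ng/mL TNF-α (final) for 20–24 h at 37 °C, after a 30 min room-temperature pretreatment of FADD-deficient Jurkat cells with 0.1, 1 or 10 μM compound. ATP-based luminescence gave viability, from which inhibition rate and cytotoxicity were derived.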
A general note: In ATP-based viability assays light output follows the ATP content of the culture.

Assay [3] concerns the target T1, MLKL. The assay is described as follows: MLKL degradation assay in HepG2 cell line (western blot). It is filed as cell-based. Set-up: endogenous in cells; host or cells: HepG2 or HaCaT. The note with it: cell line not given; for Degradation assay (Degradation %) 1 μM: compound 1 μM; for Degradation assay (Degradation %) 10 μM: compound 10 μM. Summed up: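 Western blot chemiluminescence of MLKL in equal-protein lysates (10-15 μg, BCA-adjusted). Before lysis, HepG2 cells were exposed to 1 or 10 μM (final) test compound for 20-24 h at 37 °C.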
(In general: In western blotting, separated proteins are transferred to a membrane and probed.)

Broadly, the Kd is the constant that tells how readily two partners part at equilibrium. High values mean a looser complex, low ones a tighter complex. `Nc1ncc(-c2cnn(C3CCN(C(=O)C4CCN(C(=O)CCc5cccc6c5C(=O)N(C5CCC(=O)NC5=O)C6=O)CC4)CC3)c2)nc1C(=O)O[C@@H](C(=O)Nc1ccc(F)cc1)c1ccccc1` (stereo partly drawn) [TDH-380, (R)-2-((4-fluorophenyl)amino)-2-oxo-1-phenylethyl 3-amino-6-(1-(1-(1-(3-(2-(2,6-dioxopiperidin-3-yl)-1,3-dioxoisoindolin-4-yl)propanoyl)piperidine-4-carbonyl)piperidin-4-yl)-1H-pyrazol-4-yl)pyrazine-2-carboxylate]: in assay [1], binding was characterised by a dissociation constant (Kd) of 1.5 nM. In assay [2], the “Necroptosis inhibition assay (Rescue %) 1 μM” value came out at 38.37% and the “Necroptosis inhibition assay (Rescue %) 10 μM” value worked out at 35.96%. Besides, in assay [3], the “Degradation assay (Degradation %) 1 μM” value came out at 86.88% and the “Degradation assay (Degradation %) 10 μM” value is on record as 95.41%.
Consider `Nc1ncc(-c2cnn(C3CCN(CCCCCCCCCCNc4ccc5nnn(C6CCC(=O)NC6=O)c(=O)c5c4)CC3)c2)nc1C(=O)O[C@@H](C(=O)Nc1ccc(F)cc1)c1ccccc1` (stereo partly drawn) [TDH-179, (R)-2-((4-fluorophenyl)amino)-2-oxo-1-phenylethyl 3-amino-6-(1-(1-(10-((3-(2,6-dioxopiperidin-3-yl)-4-oxo-3,4-dihydrobenzo[d][1,2,3]triazin-6-yl)amino)decyl)piperidin-4-yl)-1H-pyrazol-4-yl)pyrazine-2-carboxylate], for which the Kd in assay [1] was found to be 31 nM. Besides, in assay [2], the “Necroptosis inhibition assay (Rescue %) 1 μM” value is listed as 23.48% and the “Necroptosis inhibition assay (Rescue %) 10 μM” value is reported as 14.8%. Besides, in assay [3], the “Degradation assay (Degradation %) 1 μM” value was 78.61% and the “Degradation assay (Degradation %) 10 μM” value amounted to 61.56%.
For the compound `Nc1ncc(-c2cnn(C3CCN(CCOCCOCCNC(=O)CNc4cccc5c4C(=O)N(C4CCC(=O)NC4=O)C5=O)CC3)c2)nc1C(=O)O[C@@H](C(=O)Nc1ccc(F)cc1)c1ccccc1` (stereo partly drawn) [TDH-102, (R)-2-((4-fluorophenyl)amino)-2-oxo-1-phenylethyl 3-amino-6-(1-(1-(2-(2-(2-(2-((2-(2,6-dioxopiperidin-3-yl)-1,3-dioxoisoindolin-4-yl)amino)acetamido)ethoxy)ethoxy)ethyl)piperidin-4-yl)-1H-pyrazol-4-yl)pyrazine-2-carboxylate], the Kd in assay [1] was determined as 2.1 nM. Moreover, in assay [2], the “Necroptosis inhibition assay (Rescue %) 1 μM” value is on record as 39.17% and the “Necroptosis inhibition assay (Rescue %) 10 μM” value was found to be 42.99%. For the same compound, in assay [3], the “Degradation assay (Degradation %) 1 μM” value is recorded as 12.94% and the “Degradation assay (Degradation %) 10 μM” value is 42.92%.
In the same order, the values of `Nc1ncc(-c2cnn(C3CCN(C(=O)c4cn(C5CCN(C(=O)CNc6ccc7c(c6)C(=O)N(C6CCC(=O)NC6=O)C7=O)CC5)cn4)CC3)c2)nc1C(=O)O[C@@H](C(=O)Nc1ccc(F)cc1)c1ccccc1` (stereo partly drawn) [TDH-361, (R)-2-((4-fluorophenyl)amino)-2-oxo-1-phenylethyl 3-amino-6-(1-(1-(1-(1-((2-(2,6-dioxopiperidin-3-yl)-1,3-dioxoisoindolin-5-yl)glycyl)piperidin-4-yl)-1H-imidazole-4-carbonyl)piperidin-4-yl)-1H-pyrazol-4-yl)pyrazine-2-carboxylate] are 1.7 nM, 19.10%, 10.01%, 51.1% and 48.59%.
In the same order, the values of `Nc1ncc(-c2cnn(C3CCN(C(=O)C4CCN(C(=O)COc5cccc6c5C(=O)N(C5CCC(=O)NC5=O)C6=O)CC4)CC3)c2)nc1C(=O)OC(C(=O)Nc1ccc(F)cc1)c1ccccc1` (stereo not shown) [TDH-277, 2-((4-fluorophenyl)amino)-2-oxo-1-phenylethyl 3-amino-6-(1-(1-(1-(2-((2-(2,6-dioxopiperidin-3-yl)-1,3-dioxoisoindolin-4-yl)oxy)acetyl)piperidine-4-carbonyl)piperidin-4-yl)-1H-pyrazol-4-yl)pyrazine-2-carboxylate] are 1.5 nM, 43.59%, 13.88%, 40.52% and 53.39%.
With `Nc1ncc(-c2cnn(C3CCN(CCC4CCN(C(=O)C5CN(C6=CC(=O)N(C7CCC(=O)NC7=O)C6=O)C5)CC4)CC3)c2)nc1C(=O)O[C@@H](C(=O)Nc1ccc(F)cc1)c1ccccc1` (stereo partly drawn) [TDH-531, (R)-2-((4-fluorophenyl)amino)-2-oxo-1-phenylethyl 3-amino-6-(1-(1-(2-(1-(1-(1-(2,6-dioxopiperidin-3-yl)-2,5-dioxo-2,5-dihydro-1H-pyrrol-3-yl)azetidine-3-carbonyl)piperidin-4-yl)ethyl)piperidin-4-yl)-1H-pyrazol-4-yl)pyrazine-2-carboxylate], in assay [1], the Kd was found to be 0.28 nM. Moreover, in assay [2] (FADD−/− Jurkat cells), the “Necroptosis inhibition assay (Rescue %) 1 μM” value was 16.12% and the “Necroptosis inhibition assay (Rescue %) 10 μM” value turned out to be 15.34%. In assay [3], the “Degradation assay (Degradation %) 1 μM” value was found to be 67.64% and the “Degradation assay (Degradation %) 10 μM” value is listed as 53.49%.
Consider `Nc1ncc(-c2cnn([C@@H]3CCN(CC4CCN(C(=O)COc5ccc6c(c5)C(=O)N(C5CCC(=O)NC5=O)C6=O)CC4)C3)c2)nc1C(=O)O[C@@H](C(=O)Nc1ccc(F)cc1)c1ccccc1` (stereo partly drawn) [TDH-359, (R)-2-((4-fluorophenyl)amino)-2-oxo-1-phenylethyl 3-amino-6-(1-((3R)-1-((1-(2-((2-(2,6-dioxopiperidin-3-yl)-1,3-dioxoisoindolin-5-yl)oxy)acetyl)piperidin-4-yl)methyl)pyrrolidin-3-yl)-1H-pyrazol-4-yl)pyrazine-2-carboxylate], for which, in assay [1], the Kd came out at 1.7 nM. The “Necroptosis inhibition assay (Rescue %) 1.1 μM” value in assay [2] (compound 1.1 µM) was 67.68 (1.1 µM) %. Further, the “Necroptosis inhibition assay (Rescue %) 10 μM” value in assay [2] is recorded as 40.02%. Also, in assay [3], the “Degradation assay (Degradation %) 1 μM” value was determined as 92.98% and the “Degradation assay (Degradation %) 10 μM” value stood at 85.17%.
In turn, `Nc1ncc(-c2cnn(C3CCN(CCc4cn(C5CCN(C(=O)COc6ccc7c(c6)C(=O)N(C6CCC(=O)NC6=O)C7=O)CC5)nn4)CC3)c2)nc1C(=O)O[C@@H](C(=O)Nc1ccc(F)cc1)c1ccccc1` (stereo partly drawn) [TDH-451, (R)-2-((4-fluorophenyl)amino)-2-oxo-1-phenylethyl 3-amino-6-(1-(1-(2-(1-(1-(2-((2-(2,6-dioxopiperidin-3-yl)-1,3-dioxoisoindolin-5-yl)oxy)acetyl)piperidin-4-yl)-1H-1,2,3-triazol-4-yl)ethyl)piperidin-4-yl)-1H-pyrazol-4-yl)pyrazine-2-carboxylate] yielded a Kd in assay [1] of 0.54 nM. Also, in assay [2] (FADD−/− Jurkat cells), the “Necroptosis inhibition assay (Rescue %) 1 μM” value stood at 19.55% and the “Necroptosis inhibition assay (Rescue %) 10 μM” value is 17.67%. Further, in assay [3], the “Degradation assay (Degradation %) 1 μM” value is 64.37% and the “Degradation assay (Degradation %) 10 μM” value is recorded as 50.39%.
Consider `Nc1ncc(-c2cnn([C@@H]3CCN(CCOCCOCCNC(=O)COc4cccc5c4C(=O)N(C4CCC(=O)NC4=O)C5=O)C3)c2)nc1C(=O)OC(C(=O)Nc1ccc(F)cc1)c1ccccc1` (stereo partly drawn) [TDH-269, 2-((4-fluorophenyl)amino)-2-oxo-1-phenylethyl 3-amino-6-(1-((3R)-1-(2-(2-(2-(2-((2-(2,6-dioxopiperidin-3-yl)-1,3-dioxoisoindolin-4-yl)oxy)acetamido)ethoxy)ethoxy)ethyl)pyrrolidin-3-yl)-1H-pyrazol-4-yl)pyrazine-2-carboxylate], for which binding in assay [1] was put at a Kd of 5.4 nM. In assay [2], the “Necroptosis inhibition assay (Rescue %) 1 μM” value amounted to 35.71% and the “Necroptosis inhibition assay (Rescue %) 10 μM” value is listed as 81.5%. Also, the “Degradation assay (Degradation %) 10 μM” value in assay [3] came out at 12.14%.
In assay [1], `Nc1ncc(-c2cnn(C3CCN(CC4CN(c5ccc6c(c5)C(=O)N(C5CCC(=O)NC5=O)C6=O)CCO4)CC3)c2)nc1C(=O)OC(C(=O)Nc1ccc(F)cc1)c1ccccc1` (stereo not shown) [TDH-311, 2-((4-fluorophenyl)amino)-2-oxo-1-phenylethyl 3-amino-6-(1-(1-((4-(2-(2,6-dioxopiperidin-3-yl)-1,3-dioxoisoindolin-5-yl)morpholin-2-yl)methyl)piperidin-4-yl)-1H-pyrazol-4-yl)pyrazine-2-carboxylate] yielded a Kd of 5.3 nM. In addition, in assay [2], the “Necroptosis inhibition assay (Rescue %) 1 μM” value came to 57.09% and the “Necroptosis inhibition assay (Rescue %) 10 μM” value is 39.01%. Further, in assay [3], the “Degradation assay (Degradation %) 1 μM” value is recorded as 69.38% and the “Degradation assay (Degradation %) 10 μM” value came out at 52.38%.
